Laboratory results as given in patent US20250011318A1 (ARCUS BIOSCIENCES, INC., priority 2023, published 2025).

Columns and labels:
Cbl-b = biological target: T1, Cbl-b (Homo sapiens, UniProt Q13191); assay: Cbl-b probe displacement HTRF binding assay; settings: 0.4 nM biotinylated Cbl-b, 150 nM BODIPY probe
T1 construct: biotin (biotinylated)
Description: The affinity with which compounds of the present disclosure bind to Cbl-b was assessed using probe displacement homologous time resolved fluorescence (HTRF) assays. The assays used a BODIPY™ conjugated probe (Example 54 from WO 2020264398) and biotinylated Cbl-b. The assays were performed in assay buffer consisting of 20 mM Hepes, 150 mM NaCl, 0.01% Triton X-100, 0.5 mM TCEP, 0.01% BSA. On the day of the assay, a 20 point, 1:2 master serial dilution of each compound was prepared in DMSO to span a final concentration range of 10 μM to 0 nM. Two hundred nanoliters of diluted compound was added to each well of a 384-well plate. Fifteen microliters of biotinylated—Cbl-b resuspended in assay buffer were added to each well and the plate incubated for 60 minutes at room temperature prior to addition of 5 μL of BODIPY™ probe in assay buffer. Final assay conditions included 0.4 nM of Cbl-b and 150 nM of BODIPY™ probe. After a further 15 minutes of incubation at room temperature, 5 μl of Streptavidin-Terbium cryptate reagent at 5-fold final concentration was added to each well of the 384-well plate. Binding of a probe to Cbl-b results in an increase of HTRF signal. HTRF signal was measured by Envision plate reader, while competition of a compound of the present disclosure with probe results in a decrease of signal. Percentage maximum activity in each test well was calculated based on DMSO (maximum activity, 0% displacement) and no protein control wells (baseline activity, 100% displacement). Binding affinity was determined from a dose response curve fitted using a standard four parameter fit equation. See Table 3 for data for compounds (Cbl-b Binding (IC50)).

Jurkat cells = assay: IL-2 secretion assay in CD3/CD28-activated Jurkat cells (AlphaLISA); type: cell-based, human; settings: Homo sapiens, CD3/CD28 T Cell Activator, 24 h, IL-2 AlphaLISA
Description: Certain compounds were also evaluated in an IL-2 secretion assay. On the day of the assay, a 16 point, 1:2 master serial dilution of each compound was prepared in Opti-MEM to span a final concentration range of 10 μM to 300 pM. Assays were setup in CORNING® tissue culture-treated 384-well microplates containing 60 nL of each dilution. Jurkat cells grown in RPMI-1640 supplemented with 10% FBS, 1% Glutamax, and 1% Pen/Strep were collected, resuspended in Opti-MEM. 50,000 cells/well and added to the compound plates. After a short spin (1200 rpm for 1 min), the plates were incubated at 37° C. for 1 hour. The cells were activated by adding 15 μL of IMUNOCULT™ Human CD3/CD28 T Cell Activator (STEMCELL Technologies) diluted in Opti-MEM. After 24 h of incubation at 37° C., aliquots of culture supernatants were transferred to OptiPlate-384 (PerkinElmer) microplates. The level of IL-2 secretion in the supernatants was then determined using the IL-2 (human) AlphaLISA Detection Kit (PerkinElmer) according to the manufacturer's recommendations. The AlphaLISA signal was measured using an EnVision plate reader (PerkinElmer). EC50 values were determined by fitting the data to a standard 4-parameter logistic equation. See Table 3 for data for select compounds (IL-2 Secretion (EC50)).

T1 sequence (Q13191 whole entry, species assumed): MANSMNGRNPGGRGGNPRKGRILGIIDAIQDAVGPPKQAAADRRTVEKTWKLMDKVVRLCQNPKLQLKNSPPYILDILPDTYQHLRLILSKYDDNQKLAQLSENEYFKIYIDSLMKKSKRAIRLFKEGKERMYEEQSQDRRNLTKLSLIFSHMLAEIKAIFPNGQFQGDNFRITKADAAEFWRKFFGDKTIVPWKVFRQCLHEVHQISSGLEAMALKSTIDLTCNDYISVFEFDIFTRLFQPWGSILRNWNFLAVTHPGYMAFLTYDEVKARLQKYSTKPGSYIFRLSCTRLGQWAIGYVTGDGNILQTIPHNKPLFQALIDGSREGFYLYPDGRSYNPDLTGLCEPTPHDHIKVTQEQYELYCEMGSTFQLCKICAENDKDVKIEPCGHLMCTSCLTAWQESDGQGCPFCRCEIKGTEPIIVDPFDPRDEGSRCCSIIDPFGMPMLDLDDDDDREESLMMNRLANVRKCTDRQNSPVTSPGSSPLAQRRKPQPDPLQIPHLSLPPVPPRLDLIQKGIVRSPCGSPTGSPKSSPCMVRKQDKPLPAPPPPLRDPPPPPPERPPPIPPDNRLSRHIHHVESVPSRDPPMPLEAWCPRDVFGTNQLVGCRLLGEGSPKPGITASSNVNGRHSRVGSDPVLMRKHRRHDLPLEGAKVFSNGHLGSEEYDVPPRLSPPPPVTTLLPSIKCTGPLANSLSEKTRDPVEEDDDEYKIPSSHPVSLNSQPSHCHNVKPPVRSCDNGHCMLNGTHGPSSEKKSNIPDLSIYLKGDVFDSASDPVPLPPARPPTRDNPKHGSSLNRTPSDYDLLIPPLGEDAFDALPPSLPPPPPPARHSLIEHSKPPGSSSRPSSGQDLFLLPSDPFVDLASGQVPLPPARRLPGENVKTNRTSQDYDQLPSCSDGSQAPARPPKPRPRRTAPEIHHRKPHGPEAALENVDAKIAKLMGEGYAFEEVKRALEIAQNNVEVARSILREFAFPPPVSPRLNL

IC50 (Cbl-b) [nM]	EC50 (Jurkat cells) [nM]	SMILES
< 100	< 100	C[C@H]1CCCN(Cc2cc3c(C4CC4)cn(-c4cc(-c5ccc(C#N)cc5-c5nncn5C)cc(Cl)n4)c(=O)c3[nH]2)C1 [Example 1, 4-[2-(2-{[(S)-3-methyl-1-piperidyl]methyl}-4-cyclopropyl-7-oxo-1,6-dihydro-1,6-diaza-6-indenyl)-6-chloro-4-pyridyl]-3-(4-methyl-4H-1,2,4-triazol-3-yl)benzonitrile]
< 100	< 100	Cn1ccnc1-c1cc(F)ccc1-c1cc(C2CC2)nc(-n2cc(C(F)(F)F)c3c(C#N)c[nH]c3c2=O)c1 [Example 136, 6-{6-cyclopropyl-4-[4-fluoro-2-(1-methyl-2-imidazolyl)phenyl]-2-pyridyl}-7-oxo-4-(trifluoromethyl)-1,6-dihydro-1,6-diaza-3-indenecarbonitrile]
< 100	100 to 1000	C[C@@H]1CN(Cc2cc3c(C4CC4)cn(-c4cc(-c5cc(F)c(F)cc5-c5nccn5C)cc(C5CC5)n4)c(=O)c3[nH]2)CCO1 [Example 66, 2-{[(R)-2-methyl-4-morpholinyl]methyl}-4-cyclopropyl-6-{6-cyclopropyl-4-[4,5-difluoro-2-(1-methyl-2-imidazolyl)phenyl]-2-pyridyl}-1,6-dihydro-1,6-diaza-7-indenone]
< 100	100 to 1000	CC1(NCc2cc3c(C4CC4)cn(-c4cc(-c5ccc(F)cc5-n5nccc5C(F)(F)F)cc(C5CC5)n4)c(=O)c3[nH]2)CCC1 [Example 103, 4-cyclopropyl-6-[6-cyclopropyl-4-[4-fluoro-2-[5-(trifluoromethyl)pyrazol-1-yl]phenyl]pyridin-2-yl]-2-[[(1-methylcyclobutyl)amino]methyl]-1H-pyrrolo[2,3-c]pyridin-7-one]
< 100	< 100	C[C@H]1CCCN(Cc2cc3c(C4CC4)cn(-c4cc(-c5ccc(C#N)cc5-c5nccn5C(F)F)cc(C5CC5)n4)c(=O)c3[nH]2)C1 [Example 15, 4-[2-(2-{1[(S)-3-methyl-1-piperidyl]methyl}-4-cyclopropyl-7-oxo-1,6-dihydro-1,6-diaza-6-indenyl)-6-cyclopropyl-4-pyridyl]-3-[1-(difluoromethyl)-2-imidazolyl]benzonitrile]
< 100	< 100	Cn1cnnc1-c1cc(F)ccc1-c1cc(C2CC2)nc(-n2cc(C#N)c3cc(CC4(O)CCCCC4)[nH]c3c2=O)c1 [Example 96, 6-{6-cyclopropyl-4-[4-fluoro-2-(4-methyl-4H-1,2,4-triazol-3-yl)phenyl]-2-pyridyl}-2-[(1-hydroxycyclohexyl)methyl]-7-oxo-1,6-dihydro-1,6-diaza-4-indenecarbonitrile]
< 100	< 100	COC[C@H](C)NCc1cc2ncn(-c3cc(-c4ccc(F)cc4-c4nc(C#N)cn4C)cc(C4CC4)n3)c(=O)c2[nH]1 [Example 111, 2-[2-[2-cyclopropyl-6-[6-[[[(2S)-1-methoxypropan-2-yl]amino]methyl]-4-oxo-5H-pyrrolo[3,2-d]pyrimidin-3-yl]pyridin-4-yl]-5-fluorophenyl]-1-methylimidazole-4-carbonitrile]
< 100	< 100	C[C@@H]1CN(Cc2cc3c(C4CC4)cn(-c4cc(-c5c(F)cc(F)cc5-c5nccn5C)cc(C5CC5)n4)c(=O)c3[nH]2)CCO1 [Example 65, 2-{[(R)-2-methyl-4-morpholinyl]methyl}-4-cyclopropyl-6-{6-cyclopropyl-4-[4,6-difluoro-2-(1-methyl-2-imidazolyl)phenyl]-2-pyridyl}-1,6-dihydro-1,6-diaza-7-indenone]
< 100	< 100	COc1cc(-c2ccc(F)cc2-c2nncn2C)cc(-n2cc(C3CC3)c3cc(CN4CCC[C@H](C)C4)[nH]c3c2=O)n1 [Example 8, 2-{[(S)-3-Methyl-1-piperidyl]methyl}-4-cyclopropyl-6-{4-[4-fluoro-2-(4-methyl-4H-1,2,4-triazol-3-yl)phenyl]-6-methoxy-2-pyridyl}-1,6-dihydro-1,6-diaza-7-indenone]
< 100	100 to 1000	Cc1c[nH]nc1-c1cc(F)ccc1-c1cccc(-n2cc(C3CC3)c3cc(CN4CCC[C@H](C)C4)[nH]c3c2=O)c1 [Example 21, 4-cyclopropyl-6-[3-[4-fluoro-2-(4-methyl-1H-pyrazol-3-yl)phenyl]phenyl]-2-[[(3S)-3-methylpiperidin-1-yl]methyl]-1H-pyrrolo[2,3-c]pyridin-7-one]
< 100	< 100	C[C@@H]1CN(Cc2cc3c(C#N)cn(-c4cc(-c5ccc(F)cc5-c5nncn5C)cc(C5CC5)n4)c(=O)c3[nH]2)CCO1 [Example 85, 6-[6-cyclopropyl-4-[4-fluoro-2-(4-methyl-1,2,4-triazol-3-yl)phenyl]pyridin-2-yl]-2-[[(2R)-2-methylmorpholin-4-yl]methyl]-7-oxo-1H-pyrrolo[2,3-c]pyridine-4-carbonitrile]
< 100	100 to 1000	Cn1cnnc1-c1cc(F)ccc1-c1cc(C2CC2)nc(-n2cnc3cc(CNCC(F)(F)F)[nH]c3c2=O)c1 [Example 33, 6-{6-cyclopropyl-4-[4-fluoro-2-(4-methyl-4H-1,2,4-triazol-3-yl)phenyl]-2-pyridyl}-2-[(2,2,2-trifluoroethylamino)methyl]-1,6-dihydro-1,4,6-triaza-7-indenone]
< 100	100 to 1000	COCCOCc1cc2ncn(-c3cc(-c4ccc(F)cc4-c4nncn4C)cc(C4CC4)n3)c(=O)c2[nH]1 [Example 38, 6-{6-cyclopropyl-4-[4-fluoro-2-(4-methyl-4H-1,2,4-triazol-3-yl)phenyl]-2-pyridyl}-2-[(2-methoxyethoxy)methyl]-1,6-dihydro-1,4,6-triaza-7-indenone]
< 100	100 to 1000	Cc1cccc(C(N)c2cc3c(C#N)cn(-c4cc(-c5ccc(F)cc5-c5nncn5C)cc(C5CC5)n4)c(=O)c3[nH]2)n1 (stereo not drawn) [Example 95, 2-[amino(6-methyl-2-pyridyl)methyl]-6-{6-cyclopropyl-4-[4-fluoro-2-(4-methyl-4H-1,2,4-triazol-3-yl)phenyl]-2-pyridyl}-7-oxo-1,6-dihydro-1,6-diaza-4-indenecarbonitrile]
< 100	< 100	Cc1ocnc1-c1cc(C#N)ccc1-c1cc(C2CC2)nc(-n2cc(C3CC3)c3cc(CNC4(C)CCC4)[nH]c3c2=O)c1 [Example 71, 4-(6-cyclopropyl-2-{4-cyclopropyl-2-[(1-methylcyclobutylamino)methyl]-7-oxo-1,6-dihydro-1,6-diaza-6-indenyl}-4-pyridyl)-3-(5-methyl-1,3-oxazol-4-yl)benzonitrile]
< 100	100 to 1000	COCCNC(c1cc2ncn(-c3cc(-c4ccc(F)cc4-c4nncn4C)cc(C4CC4)n3)c(=O)c2[nH]1)C(F)(F)F (stereo not drawn) [Example 36, 6-{6-cyclopropyl-4-[4-fluoro-2-(4-methyl-4H-1,2,4-triazol-3-yl)phenyl]-2-pyridyl}-2-[2,2,2-trifluoro-1-(2-methoxyethylamino)ethyl]-1,6-dihydro-1,4,6-triaza-7-indenone]
< 100	< 100	C[C@H]1CCCN(Cc2cc3c(C4CC4)cn(-c4cc(-c5ccc(C#N)cc5-c5nncn5C(F)F)cc(C5CC5)n4)c(=O)c3[nH]2)C1 [Example 69, 4-[2-(2-{[(S)-3-methyl-1-piperidyl]methyl}-4-cyclopropyl-7-oxo-1,6-dihydro-1,6-diaza-6-indenyl)-6-cyclopropyl-4-pyridyl]-3-[4-(difluoromethyl)-4H-1,2,4-triazol-3-yl]benzonitrile]

SMILES	IC50 (Cbl-b) [nM]	EC50 (Jurkat cells) [nM]
CC(c1cc2c(C3CC3)cn(-c3cc(-c4ccc(C#N)cc4-c4nccn4C)cc(C4CC4)n3)c(=O)c2[nH]1)N1CCC[C@H](C)C1 (mixture of isomers) [Example 100, 4-[2-(2-{1-[(S)-3-methyl-1-piperidyl]ethyl}-4-cyclopropyl-7-oxo-1,6-dihydro-1,6-diaza-6-indenyl)-6-cyclopropyl-4-pyridyl]-3-(1-methyl-2-imidazolyl)benzonitrile]	< 100	< 100
